# Assay results: patent publication US12285407B2, “Bis-indolylmethane derivatives and uses thereof” (The University of The West Indies, priority 2018, dated 2025)
# Like-named read-outs stand apart in the source and are kept apart here.
# How the values were obtained:
# Enterococcus faecium = assay: Checkerboard synergy (FICI) of antibiotics with SP-BIM; type: cell-based; settings: Enterococcus faecium, Enterococcus faecium; for MIC: 24 h, antibiotic alone, read-out: MIC antibiotic only
# [1] = system: clinical strains of Enterococcus faecium; assay: Kirby Bauer disc diffusion susceptibility profile; type: cell-based; settings: for Zone of clearance: 35° C., 24 hours, average n=3; for Interpretive standard (resistant/susceptible): zones vs EUCAST breakpoints (Table 31)
# Klebsiella pneumoniae [2] = assay: Checkerboard synergy (FICI) of antibiotics with SP-BIM; type: cell-based; settings: for MIC: 24 h, antibiotic alone, read-out: MIC antibiotic only
# clinical strains of MRSA = assay: Kirby Bauer disc diffusion susceptibility profile; type: cell-based, Staphylococcus aureus; settings: for Zone of clearance: 35° C., 24 hours, average n=3; for Interpretive standard (resistant/susceptible): zones vs EUCAST breakpoints (Table 30)
# Candida albicans = assay: Checkerboard synergy (FICI) of antibiotics with SP-BIM; parameters: MIC SP-BIM 13 only / MIC in combination: Antibiotic / MIC antibiotic only: unit not given beside the values
# Streptococcus pneumoniae [3] = assay: Adjuvant broth microdilution (antibiotic MIC with SP-BIM at 50 μg/mL); type: cell-based; settings: Streptococcus pneumoniae; Streptococcus pneumonia; antibiotic alone; Table 5; read-out: MIC of antibiotic, No compound
# Escherichia coli [4] = assay: microbe, parasite or virus in culture; type: cell-based; settings: antibiotic alone, Table 6, read-out: MIC of antibiotic, No compound
# Escherichia coli [5] = assay: Checkerboard synergy (FICI) of antibiotics with SP-BIM; parameters: MIC SP-BIM 13 only / MIC in combination: Antibiotic: unit not given beside the values; settings: for MIC: 24 h
# MRSA = assay: Adjuvant broth microdilution (antibiotic MIC with SP-BIM at 50 μg/mL); type: cell-based, Staphylococcus aureus; settings: Staphylococcus aureus, antibiotic alone, Table 4, read-out: MIC of antibiotic, No compound
# Klebsiella pneumoniae [6] = assay: as above; type: cell-based; settings: Klebsiella pneumoniae; antibiotic alone; Table 7; read-out: MIC of antibiotic, No compound
# Streptococcus pneumoniae [7] = assay: Checkerboard synergy (FICI) of antibiotics with SP-BIM; type: cell-based; settings: for MIC: 24 h, antibiotic alone, read-out: MIC antibiotic only
# Staphylococcus aureus = assay: as above; type: cell-based; settings: Staphylococcus aureus, Staphylococcus aureus; for MIC: 24 h, antibiotic alone, read-out: MIC antibiotic only
# Bacillus cereus = assay: as above; type: cell-based; settings: for MIC: 24 h, antibiotic alone, read-out: MIC antibiotic only
# [8] = SP-BIM 9 concentration in combination with the labelled antibiotic
# [9] = SP-BIM 9 in combination with the labelled antibiotic
# [10] = SP-BIM 13 in combination with the labelled antibiotic
# [11] = antibiotic in combination with SP-BIM 9
# [12] = antibiotic in combination with SP-BIM 13
# [13] = MIC of the antibiotic in combination with SP-BIM 13
# [14] = Streptococcus pneumonia (title: Streptococcus pyogenes), antibiotic + SP-BIM 9
# [15] = Streptococcus pneumoniae, antibiotic + SP-BIM 13
smiles,measurement,setting,value
"[H]/N=C(/N)N[C@H]1[C@H](O)[C@@H](O)[C@H](O[C@@H]2O[C@@H](C)[C@](O)(C=O)[C@H]2O[C@@H]2O[C@@H](CO)[C@H](O)[C@@H](O)[C@@H]2NC)[C@@H](N/C(N)=N\[H])[C@@H]1O [Streptomycin, streptomycin]",MIC,Enterococcus faecium; SP-BIM 9 checkerboard,32 µg/mL
same,MIC,Enterococcus faecium; SP-BIM 13 checkerboard,32 µg/mL
same,"MIC in combination, SP-BIM 9",Enterococcus faecium; [8],16 µg/mL
same,FIC of SP-BIM 9,Enterococcus faecium; [9],0.1
same,FIC of SP-BIM 13,Enterococcus faecium; [10],0.5
same,Interpretation,Enterococcus faecium; antibiotic + SP-BIM 9,Synergy (Synergy: FICI≤0.5)
same,Σ FIC,Enterococcus faecium; antibiotic + SP-BIM 9,≤0.3
same,Interpretation,Enterococcus faecium; antibiotic + SP-BIM 13,Additive (Additive: FICI>0.5-1.0)
same,Σ FIC,Enterococcus faecium; antibiotic + SP-BIM 13,0.6
same,"MIC in combination, Antibiotic",Enterococcus faecium; [11],8 µg/mL
same,"MIC in combination, Antibiotic",Enterococcus faecium; [12],4 µg/mL
same,FIC of antibiotic,Enterococcus faecium; in combination with SP-BIM 9,0.3
same,FIC of antibiotic,Enterococcus faecium; in combination with SP-BIM 13,0.1
same,Zone of clearance,[1]; E. faecium strain 15134,20 mm
same,Interpretive standard (resistant/susceptible),[1]; E. faecium strain 15134,S
same,Zone of clearance,[1]; E. faecium strain 21024,17 mm
same,Interpretive standard (resistant/susceptible),[1]; E. faecium strain 21024,S
same,Zone of clearance,[1]; E. faecium strain 21955,13 mm
same,Interpretive standard (resistant/susceptible),[1]; E. faecium strain 21955,R
same,Zone of clearance,[1]; E. faecium strain 22003,18 mm
same,Interpretive standard (resistant/susceptible),[1]; E. faecium strain 22003,S
same,Zone of clearance,[1]; E. faecium strain 22870,29 mm
same,Interpretive standard (resistant/susceptible),[1]; E. faecium strain 22870,S
same,Zone of clearance,[1]; E. faecium strain 23227,25 mm
same,Interpretive standard (resistant/susceptible),[1]; E. faecium strain 23227,S
same,Zone of clearance,[1]; E. faecium strain 23230,14 mm
same,Interpretive standard (resistant/susceptible),[1]; E. faecium strain 23230,S
same,Zone of clearance,[1]; E. faecium strain 23668,13 mm
same,Interpretive standard (resistant/susceptible),[1]; E. faecium strain 23668,R
same,Zone of clearance,[1]; E. faecium strain 24169,19 mm
same,Interpretive standard (resistant/susceptible),[1]; E. faecium strain 24169,S
same,Zone of clearance,[1]; E. faecium strain RC63,5 mm
same,Interpretive standard (resistant/susceptible),[1]; E. faecium strain RC63,R
same,MIC,Klebsiella pneumoniae [2]; SP-BIM 9 checkerboard,125 µg/mL
same,MIC,Klebsiella pneumoniae [2]; SP-BIM 13 checkerboard,125 µg/mL
same,FIC of SP-BIM 9,Klebsiella pneumoniae [2]; [9],0.5
same,FIC of SP-BIM 13,Klebsiella pneumoniae [2]; [10],0.0
same,Interpretation,Klebsiella pneumoniae [2]; antibiotic + SP-BIM 9,Additive (Additive: FICI>0.5-1.0)
same,Σ FIC,Klebsiella pneumoniae [2]; antibiotic + SP-BIM 9,<0.6
same,Interpretation,Klebsiella pneumoniae [2]; antibiotic + SP-BIM 13,Synergy (Synergy: FICI≤0.5)
same,Σ FIC,Klebsiella pneumoniae [2]; antibiotic + SP-BIM 13,<0.3
same,"MIC in combination, Antibiotic",Klebsiella pneumoniae [2]; [11],16 µg/mL
same,"MIC in combination, Antibiotic",Klebsiella pneumoniae [2]; [12],32 µg/mL
same,FIC of antibiotic,Klebsiella pneumoniae [2]; in combination with SP-BIM 9,0.128
same,FIC of antibiotic,Klebsiella pneumoniae [2]; in combination with SP-BIM 13,0.3
same,Zone of clearance,clinical strains of MRSA; MRSA strain 1594,11.5 mm
same,Interpretive standard (resistant/susceptible),clinical strains of MRSA; MRSA strain 1594,R
same,Zone of clearance,clinical strains of MRSA; MRSA strain 1621,17.0 mm
same,Interpretive standard (resistant/susceptible),clinical strains of MRSA; MRSA strain 1621,S
same,Zone of clearance,clinical strains of MRSA; MRSA strain 5455,17.0 mm
same,Interpretive standard (resistant/susceptible),clinical strains of MRSA; MRSA strain 5455,S
same,Zone of clearance,clinical strains of MRSA; MRSA strain 5872,8.0 mm
same,Interpretive standard (resistant/susceptible),clinical strains of MRSA; MRSA strain 5872,R
same,Zone of clearance,clinical strains of MRSA; MRSA strain 7153,16.0 mm
same,Interpretive standard (resistant/susceptible),clinical strains of MRSA; MRSA strain 7153,I
same,Zone of clearance,clinical strains of MRSA; MRSA strain 7172,18.5 mm
same,Interpretive standard (resistant/susceptible),clinical strains of MRSA; MRSA strain 7172,S
same,Zone of clearance,clinical strains of MRSA; MRSA strain 7698,12.0 mm
same,Interpretive standard (resistant/susceptible),clinical strains of MRSA; MRSA strain 7698,R
same,Zone of clearance,clinical strains of MRSA; MRSA strain 10132,8.5 mm
same,Interpretive standard (resistant/susceptible),clinical strains of MRSA; MRSA strain 10132,R
same,MIC,"Candida albicans; 24 h, read-out: MIC antibiotic only",> 250 µg/mL
same,MIC in combination: Antibiotic,Candida albicans; [13],16
same,FIC of SP-BIM 13,Candida albicans; [10],0.1
same,Interpretation,Candida albicans; antibiotic + SP-BIM 13,Synergy (Synergy: FICI≤0.5)
same,Σ FIC,Candida albicans; antibiotic + SP-BIM 13,<0.2
same,FIC of antibiotic,Candida albicans; combination with SP-BIM 13,0.1
same,MIC,Streptococcus pneumoniae [3],16 µg/mL
same,MIC,Escherichia coli [4],8 µg/mL
same,MIC,"Escherichia coli [5]; read-out: MIC antibiotic only, Escherichia coli, antibiotic alone",125 µg/mL
same,MIC,"Escherichia coli [5]; read-out: MIC antibiotic only, Escherichia coli, antibiotic alone, SP-BIM 9 checkerboard",125 µg/mL
same,MIC in combination: Antibiotic,Escherichia coli [5]; [13],4
same,FIC of SP-BIM 9,Escherichia coli [5]; [9],1
same,FIC of SP-BIM 13,Escherichia coli [5]; [10],0.3
same,Interpretation,Escherichia coli [5]; antibiotic + SP-BIM 9,Indifferent (Indifferent: FICI>1.0-4.0)
same,Σ FIC,Escherichia coli [5]; antibiotic + SP-BIM 9,<1.1
same,Interpretation,Escherichia coli [5]; antibiotic + SP-BIM 13,Synergy (Synergy: FICI≤0.5)
same,Σ FIC,Escherichia coli [5]; antibiotic + SP-BIM 13,<0.3
same,"MIC in combination, Antibiotic",Escherichia coli [5]; [11],8 µg/mL
same,FIC of antibiotic,Escherichia coli [5]; combination with SP-BIM 13,0.0
same,FIC of antibiotic,Escherichia coli [5]; in combination with SP-BIM 9,0.064
same,MIC,MRSA,63 µg/mL
same,MIC,Klebsiella pneumoniae [6],32 µg/mL
same,FIC of SP-BIM 9,"Streptococcus pneumoniae [7]; Streptococcus pneumonia (title: Streptococcus pyogenes), SP-BIM 9 in combination with the labelled antibiotic",0.06
same,Interpretation,Streptococcus pneumoniae [7]; [14],Synergy (Synergy: FICI≤0.5)
same,Σ FIC,Streptococcus pneumoniae [7]; [14],<0.07
same,"MIC in combination, Antibiotic","Streptococcus pneumoniae [7]; Streptococcus pneumonia (title: Streptococcus pyogenes), antibiotic in combination with SP-BIM 9",0.2 µg/mL
same,FIC of antibiotic,"Streptococcus pneumoniae [7]; Streptococcus pneumonia (title: Streptococcus pyogenes), in combination with SP-BIM 9",0.01
same,MIC,"Streptococcus pneumoniae [7]; Streptococcus pneumoniae, Streptococcus pneumonia (title: Streptococcus pyogenes), SP-BIM 9 checkerboard",32 µg/mL
same,MIC,"Streptococcus pneumoniae [7]; Streptococcus pneumoniae, Streptococcus pneumoniae, SP-BIM 13 checkerboard",32 µg/mL
same,FIC of SP-BIM 13,"Streptococcus pneumoniae [7]; Streptococcus pneumoniae, SP-BIM 13 in combination with the labelled antibiotic",0.3
same,Interpretation,Streptococcus pneumoniae [7]; [15],Synergy (Synergy: FICI≤0.5)
same,Σ FIC,Streptococcus pneumoniae [7]; [15],<0.3
same,"MIC in combination, Antibiotic","Streptococcus pneumoniae [7]; Streptococcus pneumoniae, antibiotic in combination with SP-BIM 13",1 µg/mL
same,FIC of antibiotic,"Streptococcus pneumoniae [7]; Streptococcus pneumoniae, in combination with SP-BIM 13",0.0
same,MIC,Staphylococcus aureus; SP-BIM 9 checkerboard,8 µg/mL
same,MIC,Staphylococcus aureus; SP-BIM 13 checkerboard,8 µg/mL
same,FIC of SP-BIM 9,Staphylococcus aureus; [9],0.25
same,FIC of SP-BIM 13,Staphylococcus aureus; [10],0.3
same,Interpretation,Staphylococcus aureus; antibiotic + SP-BIM 9,Synergy (Synergy: FICI≤0.5)
same,Σ FIC,Staphylococcus aureus; antibiotic + SP-BIM 9,<0.38
same,Interpretation,Staphylococcus aureus; antibiotic + SP-BIM 13,Synergy (Synergy: FICI≤0.5)
same,Σ FIC,Staphylococcus aureus; antibiotic + SP-BIM 13,0.3
same,"MIC in combination, Antibiotic",Staphylococcus aureus; [11],1.0 µg/mL
same,"MIC in combination, Antibiotic",Staphylococcus aureus; [12],0.25 µg/mL
same,FIC of antibiotic,Staphylococcus aureus; in combination with SP-BIM 9,0.13
same,FIC of antibiotic,Staphylococcus aureus; in combination with SP-BIM 13,0.0
same,MIC,Bacillus cereus; SP-BIM 9 checkerboard,4 µg/mL
same,MIC,Bacillus cereus; SP-BIM 13 checkerboard,4 µg/mL
same,"MIC in combination, SP-BIM 9",Bacillus cereus; [8],>250 µg/mL
same,FIC of SP-BIM 9,Bacillus cereus; [9],1
same,FIC of SP-BIM 13,Bacillus cereus; [10],0.1
same,Interpretation,Bacillus cereus; antibiotic + SP-BIM 9,Synergy (Synergy: FICI≤0.5)
same,Σ FIC,Bacillus cereus; antibiotic + SP-BIM 9,<1.1
same,Interpretation,Bacillus cereus; antibiotic + SP-BIM 13,Synergy (Synergy: FICI≤0.5)
same,Σ FIC,Bacillus cereus; antibiotic + SP-BIM 13,<0.3
same,"MIC in combination, Antibiotic",Bacillus cereus; [11],0.5 µg/mL
same,"MIC in combination, Antibiotic",Bacillus cereus; [12],0.5 µg/mL
same,FIC of antibiotic,Bacillus cereus; in combination with SP-BIM 9,0.125
same,FIC of antibiotic,Bacillus cereus; in combination with SP-BIM 13,0.13
